Laboratory results: patent publication US10294244B2, “2,3-dihydro-thiazolo[3,2-A]pyridin-5-one derivatives, intermediates thereof, and their use as antibacterial agents” (Quretech Bio AB, priority 2014, dated 2019)

Tested on: C. trachomatis serovar LGV-L2
Assay: Inhibition of infectious Chlamydia progenies (C. trachomatis infectivity, reinfection of HeLa cells, IFU count)
Format: cell-based
Settings: infected HeLa cells, MOI 0.3, compound added 1 hpi, 44-48 h, relative to DMSO-treated control; for inhibition at 2.5 µM: 2.5 uM compound; for inhibition at 10 µM: 10 uM compound; for inhibition at 50 µM: 50 uM compound
Method: Cell Culture, C. trachomatis Infections, and Determination of C. trachomatis Infectivity.
HeLa cells were infected with C. trachomatis serovar LGV-L2 at an MOI of 0.3. At 1 hpi, RPMI media containing the different dilutions of the tested compounds in DMSO were added. The different compounds were dissolved to 20 mM in DMSO and were then diluted with RPMI media to be added at 2.5 to 100 μM. After 44-48 h incubation, the cells were osmotically lysed by the addition of cold sterile distilled water to release infectious EB progeny. 5×SPG was added to equalize the osmotic pressure to a 1×SPG isotonic condition. An equal amount of HBSS (Hanks balanced salt solution) (Gibco/Invitrogen) was added to the lysate (yielding a 1:1 dilution) and 10-fold serial dilutions of the resulting mixture was used to infect fresh HeLa cells. At 1 hpi, the inoculum was replaced with RPMI media and the infection allowed to progress for 44-48 hours before fixation and staining. Fixation was performed by adding methanol for 5 minutes and the cells were subsequently washed with phosphate buffered saline (PBS). The chlamydial inclusions were stained by a primary rabbit anti-Chlamydia antibody (generated in-house) and a secondary donkey anti-rabbit FITC-labelled antibody (Jackson ImmunoResearch). The DNA of the cells and Chlamydia was stained by the addition of DAPI. The stained cells were analyzed by an ArrayScan automated scanner (ArrayScan VTI HCS, Thermo Scientific). Data were presented as the relative numbers of IFUs in treated infections compared to the numbers of IFUs in DMSO-treated control infections.
The compounds of Examples 1-33 were tested for inhibition of infectious Chlamydia progenies at concentrations of 2.5 μM, 10 μM, 50 μM and 100 μM. In this document μM stands for micromolar. The compounds of the present disclosure were considered to have antibacterial activity if they provided 50% or more inhibition of infectious Chlamydia progenies using at least one of the tested concentrations in Table 1.

| SMILES | inhibition at 2.5 µM | inhibition at 10 µM | inhibition at 50 µM |
| --- | --- | --- | --- |
| COc1c(Cc2cccc3ccccc23)cc(=O)n2c1SC[C@H]2C(=O)Nc1ccccc1 [Example 1, {(3R)-7-Methoxy-6-[(1-naphthyl)methyl]-4-oxo-1-thia-3a-aza-3-indanyl}anilinoformaldehyde] | 100% | – | – |
| COc1c(Cc2cccc3ccccc23)cc(=O)n2c1SC[C@H]2C(=O)Nc1ccc(C)cc1 [Example 2, {(3R)-7-Methoxy-6-[(1-naphthyl)methyl]-4-oxo-1-thia-3a-aza-3-indanyl}(p-toluidino)formaldehyde] | 96% | 100% | – |
| COc1c(Cc2cccc(C)c2C)cc(=O)n2c1SC[C@H]2C(=O)Nc1ccccc1 [Example 3, {(3R)-7-Methoxy-4-oxo-6-[(2,3-xylyl)methyl]-1-thia-3a-aza-3-indanyl}anilinoformaldehyde] | 95% | 100% | – |
| COc1c(Cc2cccc(C)c2C)cc(=O)n2c1SC[C@H]2C(=O)Nc1cc(C)cc(F)c1 [Example 4, {(3R)-7-Methoxy-4-oxo-6-[(2,3-xylyl)methyl]-1-thia-3a-aza-3-indanyl}(3-fluoro-5-toluidino)formaldehyde] | 99% | 100% | – |
| COc1c(Cc2cccc(C)c2C)cc(=O)n2c1SC[C@H]2C(=O)Nc1ccc(C)cc1 [Example 5, {(3R)-7-Methoxy-4-oxo-6-[(2,3-xylyl)methyl]-1-thia-3a-aza-3-indanyl}(p-toluidino)formaldehyde] | 100% | 100% | – |
| COc1c(Cc2cccc3ccccc23)c(N)c(=O)n2c1SC[C@H]2C(=O)Nc1ccccc1 [Example 6, {(3R)-5-Amino-7-methoxy-6-[(1-naphthyl)methyl]-4-oxo-1-thia-3a-aza-3-indanyl}anilinoformaldehyde] | 63% | 100% | – |
| COc1c(Cc2cccc(C)c2C)c(N)c(=O)n2c1SC[C@H]2C(=O)Nc1ccc(C)cc1 [Example 7, {(3R)-5-Amino-7-methoxy-4-oxo-6-[(2,3-xylyl)methyl]-1-thia-3a-aza-3-indanyl}(p-toluidino)formaldehyde] | 90% | 100% | – |
| COc1c(Cc2cccc(C)c2C)c(N)c(=O)n2c1SC[C@H]2C(=O)Nc1cc(C)cc(F)c1 [Example 8, {(3R)-5-Amino-7-methoxy-4-oxo-6-[(2,3-xylyl)methyl]-1-thia-3a-aza-3-indanyl}(3-fluoro-5-toluidino)formaldehyde] | 87% | 100% | – |
| COc1c(Cc2cccc3ccccc23)c(N)c(=O)n2c1SC[C@H]2C(=O)Nc1ccc(C)cc1 [Example 9, {(3R)-5-Amino-7-methoxy-6-[(1-naphthyl)methyl]-4-oxo-1-thia-3a-aza-3-indanyl}(p-toluidino)formaldehyde] | 89% | 100% | – |
| O=C(Nc1ccccc1)[C@@H]1CSc2c(O)c(Cc3cccc4ccccc34)cc(=O)n21 [Example 10, {(3R)-7-Hydroxy-6-[(1-naphthyl)methyl]-4-oxo-1-thia-3a-aza-3-indanyl}anilinoformaldehyde] | 88% | 98% | – |
| O=C(Nc1ccccc1)[C@@H]1CSc2c(Cl)c(Cc3cccc4ccccc34)cc(=O)n21 [Example 11, {(3R)-7-Chloro-6-[(1-naphthyl)methyl]-4-oxo-1-thia-3a-aza-3-indanyl}anilinoformaldehyde] | 97% | 100% | – |
| O=C(Nc1ccccc1)[C@@H]1CSc2c(C(F)(F)F)c(Cc3cccc4ccccc34)cc(=O)n21 [Example 12, {(3R)-6-[(1-Naphthyl)methyl]-4-oxo-7-(trifluoromethyl)-1-thia-3a-aza-3-indanyl}anilinoformaldehyde] | 98% | 100% | – |
| COc1c(Cc2cccc(C)c2C)c(N)c(=O)n2c1SC[C@H]2C(=O)Nc1ccccc1 [Example 13, {(3R)-5-Amino-7-methoxy-4-oxo-6-[(2,3-xylyl)methyl]-1-thia-3a-aza-3-indanyl}anilinoformaldehyde] | 75% | 100% | – |
| COc1c(Cc2cccc(C)c2C)c(N)c(=O)n2c1SC[C@H]2c1nc(-c2ccccc2)no1 [Example 14, (3R)-5-Amino-7-methoxy-3-(3-phenyl-1,2,4-oxadiazol-5-yl)-6-[(2,3-xylyl)methyl]-1-thia-3a-aza-4-indanone] | 76% | 100% | – |
| COc1c(Cc2cccc(C)c2C)cc(=O)n2c1SC[C@H]2c1nnc(-c2ccccc2)o1 [Example 15, (3R)-7-Methoxy-3-(5-phenyl-1,3,4-oxadiazol-2-yl)-6-[(2,3-xylyl)methyl]-1-thia-3a-aza-4-indanone] | 84% | 100% | – |
| COc1c(Cc2cccc(C)c2C)cc(=O)n2c1SC[C@H]2c1nc(-c2ccccc2)no1 [Example 16, (3R)-7-Methoxy-3-(3-phenyl-1,2,4-oxadiazol-5-yl)-6-[(2,3-xylyl)methyl]-1-thia-3a-aza-4-indanone] | 81% | 100% | – |
| COc1c(COc2cccc(C)c2C)cc(=O)n2c1SC[C@H]2C(=O)Nc1ccc(Cl)cn1 [Example 17, {(3R)-7-Methoxy-4-oxo-6-[(2,3-xylyloxy)methyl]-1-thia-3a-aza-3-indanyl}(5-chloro-2-pyridylamino)formaldehyde] | 79% | 100% | – |
| Cc1cccc(OCc2cc(=O)n3c(c2C2CC2)SCC3C(=O)Nc2ccccc2)c1C (stereo not drawn) [Example 19, Anilino{7-cyclopropyl-4-oxo-6-[(2,3-xylylyloxy)methyl]-1-thia-3a-aza-3-indanyl}formaldehyde] | 100% | – | – |
| Cc1ccc(NC(=O)[C@@H]2CSc3c(C4CC4)c(Cc4cccc(C)c4C)cc(=O)n32)cc1 [Example 20, {(3R)-7-Cyclopropyl-4-oxo-6-[(2,3-xylyl)methyl]-1-thia-3a-aza-3-indanyl}(p-toluidino)formaldehyde] | 99% | – | – |
| Cc1ccc(NC(=O)[C@@H]2CSc3c(C4CC4)c(Cc4ccc(Cl)cc4)cc(=O)n32)cc1 [Example 21, {(3R)-6-[(p-Chlorophenyl)methyl]-7-cyclopropyl-4-oxo-1-thia-3a-aza-3-indanyl}(p-toluidino)formaldehyde] | 99% | – | – |
| O=c1cc(Cc2cccc3ccccc23)c(C2CC2)c2n1[C@H](c1nc(-c3ccccc3)n[nH]1)CS2 [Example 22, (3R)-7-Cyclopropyl-6-[(1-naphthyl)methyl]-3-(5-phenyl-2H-1,2,4-triazol-3-yl)-1-thia-3a-aza-4-indanone] | 98% | 100% | – |
| CC(C)Nc1c(Cc2cccc3ccccc23)cc(=O)n2c1SC[C@H]2C(=O)Nc1ccccc1 [Example 23, Anilino{7-(isopropylamino)-6-[(1-naphthyl)methyl]-4-oxo-1-thia-3a-aza-3-indanyl}formaldehyde] | – | 98% | 98% |
| CN(C)c1c(Cc2cccc3ccccc23)cc(=O)n2c1SC[C@H]2C(=O)Nc1ccccc1 [Example 24, {(3R)-7-(Dimethylamino)-6-[(1-naphthyl)methyl]-4-oxo-1-thia-3a-aza-3-indanyl}anilinoformaldehyde] | – | 98% | 99% |
